In experiment [1] the target is H1/Cal HA (biotinylated full length trimeric HA, A/California/07/2009) (Influenza A virus, UniProt C3W5X2). Briefly: AlphaLISA competition assay with HB80.4, H1/Cal HA. The experiment is classed as binding, influenza A virus H1N1 A/California/07/2009. An excerpt:
(§1) Binding competition studies were designed to test compounds of the invention for competition with other well characterized HA binding proteins (such as e.g. CR9114, CR6261 and HB80.4) with known epitopes on HA. The epitopes where either located at the stem of the HA (viral membrane proximal part of HA) or, for control purposes, at the head of HA (viral membrane distal part of HA). If competition was observed, it was assumed that both molecules bind to a similar or at least overlapping epitope at the surface of HA. Competition with a HA head- and stem-binder was interpreted as unspecific binding.
(§2) Hereto an AlphaLISA competition assay (Perkin Elmer) was established which relied on biotinylated full length and trimeric HA proteins (Protein Sciences, 10 μL, 0.5 nM final concentration in 50 μL) bound by HA-specific binders. The interaction between HA and the binder was detected after 1 h incubation at room temperature (RT) with two beads, a streptavidin donor bead recognizing HA (10 μL of 10 μg/mL) and an anti Fc bead (10 μg/mL) recognizing the IgGs used. If after an additional hour of incubation at RT the excited donor bead (680 nm) and acceptor bead are in close proximity, an energy transfer (singlet oxygen) can be measured as a luminescence signal of the acceptor bead (Perkin Elmer EnVision plate reader). The signal intensity in this homogeneous assay format is directly proportional to the binding strength (affinity/avidity) between both binding partners.

The test system of experiment [2] is influenza virus A/New Caledonia (H1). Kind of experiment: Virus neutralization assay (VNA) on Calu-3 cells. The experiment is classed as cell-based, influenza A virus H1N1 A/New Caledonia/20/1999.
Experiment [3] concerns the target H1/Nca HA (biotinylated full length trimeric HA, A/New Caledonia/20/1999) (Influenza A virus, UniProt Q6WG00). Kind of experiment: AlphaLISA competition assay with HB80.4, H1/NCa HA. The experiment is classed as binding, influenza A virus H1N1 A/New Caledonia/20/1999.
Text: as §1, §2
(In Alpha technology, singlet oxygen from a donor bead excites a nearby acceptor bead.)

Setting [4] is: Calu-3 cells, 5 TCID50/50 μL virus, 4 days, NP ELISA readout.
[5] abbreviates: ALC_H1_NCa_HB80.4 calculated pIC50, AlphaLISA competition with HB80.4 on H1 NCa HA, 0.5 nM HA.

In general, IC50 refers to the concentration that gives 50% inhibition.

Like-named read-outs stand apart in the source and are kept apart here. Where a SMILES comes first, the peptide text is derived from it.

As to `CSCC[C@@H]1NC(=O)CNC(=O)CNC(=O)[C@H](C)NC(=O)[C@H](C(C)C)NC(=O)CNC(=O)[C@H](CC(C)C)NC(=O)[C@@H]2CCCN2C(=O)[C@H](CC(=O)O)NC(=O)[C@H](CCC(=O)O)NC(=O)[C@H](Cc2ccc(O)cc2)NC(=O)[C@H](CC(C)C)NC(=O)[C@@H](NC(=O)CCC(=O)O)CSSC[C@@H](C(N)=O)NC(=O)CNC1=O` [CP141069, Suc-Cys-Leu-Tyr-Glu-Asp-Pro-Leu-Gly-Val-Ala-Gly-Gly-Met-Gly-Cys-NH2], the IC50 in experiment [1] was 0.316 µM; in experiment [3] (setting [5]), 0.158 µM. The “VNA_H1_NCa_Calu3 pIC50” value in experiment [2] (setting [4]) worked out at 6.1.
As for `CSCC[C@@H]1NC(=O)CNC(=O)CNC(=O)[C@H](C)NC(=O)[C@H](C(C)C)NC(=O)CNC(=O)[C@H](CC(C)C)NC(=O)[C@@H]2CCCN2C(=O)[C@H](CC(=O)O)NC(=O)[C@H](CCC(=O)O)NC(=O)[C@H](Cc2ccc(O)cc2)NC(=O)[C@H](CC(C)C)NC(=O)[C@H](CO)NC(=O)[C@H]2CCCN2C(=O)[C@@H]2CCCN2C(=O)[C@H](C(C)C)NC(=O)CNC1=O` [CP141091, D-Pro-Ser-Leu-Tyr-Glu-Asp-Pro-Leu-Gly-Val-Ala-Gly-Gly-Met-Gly-Val-Pro], the half-maximal inhibitory concentration (IC50) in experiment [1] is 5.01 µM; in experiment [3], 6.31 µM. In experiment [2], the “VNA_H1_NCa_Calu3 pIC50” value worked out at 4.2.
For `CSCC[C@@H]1NC(=O)CNC(=O)CNC(=O)[C@H](C)NC(=O)[C@H](C(C)C)NC(=O)CNC(=O)[C@H](CC(C)C)NC(=O)[C@@H]2CCCN2C(=O)[C@H](CC(=O)O)NC(=O)[C@H](CCC(=O)O)NC(=O)[C@H](Cc2ccc(O)cc2)NC(=O)[C@@H](NC(=O)CCC(=O)O)CSSC[C@@H](C(N)=O)NC1=O` [CP141070, Suc-Cys-Tyr-Glu-Asp-Pro-Leu-Gly-Val-Ala-Gly-Gly-Met-Cys-NH2], the values for the IC50 in experiment [1] and in experiment [3] were 6.31 µM and 3.98 µM, respectively. The “VNA_H1_NCa_Calu3 pIC50” value in experiment [2] is reported as 4.4.
The corresponding values for `CSCC[C@@H]1NC(=O)CNC(=O)CNC(=O)[C@H](C)NC(=O)[C@H](C(C)C)NC(=O)CNC(=O)[C@H](CC(C)C)NC(=O)[C@@H]2CCCN2C(=O)[C@H](CC(=O)O)NC(=O)[C@H](CCC(=O)O)NC(=O)[C@H](Cc2ccc(O)cc2)NC(=O)[C@H](CC(C)C)NC(=O)CNC1=O` [CP141088, Leu-Tyr-Glu-Asp-Pro-Leu-Gly-Val-Ala-Gly-Gly-Met-Gly] are 0.251 µM, 0.251 µM and 4.4.
On to `CSCC[C@@H]1NC(=O)CNC(=O)CNC(=O)[C@H](C)NC(=O)[C@H](C(C)C)NC(=O)CNC(=O)[C@H](CC(C)C)NC(=O)[C@@H]2CCCN2C(=O)[C@H](CC(=O)O)NC(=O)[C@H](CCC(=O)O)NC(=O)[C@H](Cc2ccc(O)cc2)NC(=O)[C@H](CC(C)C)NC(=O)CNC(=O)[C@H]2CCCN2C(=O)CNC1=O` [CP141084, Gly-Leu-Tyr-Glu-Asp-Pro-Leu-Gly-Val-Ala-Gly-Gly-Met-Gly-D-Pro], for which the IC50 was 0.794 µM in experiment [1] and 0.398 µM in experiment [3] (setting [5]). In addition, in experiment [2] (setting [4]), the “VNA_H1_NCa_Calu3 pIC50” value was found to be 5.7.
With `CSCC[C@@H]1NC(=O)CNC(=O)CNC(=O)[C@H](C)NC(=O)[C@H](C(C)C)NC(=O)CNC(=O)[C@H](CC(C)C)NC(=O)[C@@H]2CCCN2C(=O)[C@H](CC(=O)O)NC(=O)[C@H](CCC(=O)O)NC(=O)[C@H](Cc2ccc(O)cc2)NC(=O)[C@H](CC(C)C)NC(=O)CNC(=O)CNC1=O` [CP141087, Leu-Tyr-Glu-Asp-Pro-Leu-Gly-Val-Ala-Gly-Gly-Met-Gly-Gly], the results for the IC50 in experiment [1] and in experiment [3] were 0.501 µM and 0.631 µM, respectively. In addition, in experiment [2], the “VNA_H1_NCa_Calu3 pIC50” value is reported as 4.9.
Take `CSCC[C@H](NC(=O)CNC(=O)CNC(=O)[C@H](C)NC(=O)[C@@H](NC(=O)CNC(=O)[C@H](CC(C)C)NC(=O)[C@@H]1CCCN1C(=O)[C@H](CC(=O)O)NC(=O)[C@H](CCCNC(=N)N)NC(=O)[C@H](Cc1ccc(O)cc1)NC(=O)[C@H](CC(C)C)NC(=O)[C@H](CO)NC(=O)[C@@H](NC(=O)CCC(=O)O)C(C)C)C(C)C)C(=O)NCC(=O)N[C@H](C(=O)N[C@@H](Cc1ccc(O)cc1)C(N)=O)C(C)C` [CP141073, Suc-Val-Ser-Leu-Tyr-Arg-Asp-Pro-Leu-Gly-Val-Ala-Gly-Gly-Met-Gly-Val-Tyr-NH2]: the figures for the half-maximal inhibitory concentration (IC50) in experiment [1] and in experiment [3] (setting [5]) were 2 µM and 6.31 µM, respectively.
Turning to `CSCC[C@@H]1NC(=O)CNC(=O)CNC(=O)[C@H](C)NC(=O)[C@H](C(C)C)NC(=O)CNC(=O)[C@H](CC(C)C)NC(=O)[C@@H]2CCCN2C(=O)[C@H](CC(=O)O)NC(=O)[C@H](CCC(=O)O)NC(=O)[C@H](Cc2ccc(O)cc2)NC(=O)[C@H](CC(C)C)NC(=O)[C@H](CO)NC(=O)[C@H]2CCCN2C(=O)CNC(=O)[C@H](C(C)C)NC(=O)CNC1=O` [CP141083, D-Pro-Ser-Leu-Tyr-Glu-Asp-Pro-Leu-Gly-Val-Ala-Gly-Gly-Met-Gly-Val-Gly], the IC50 in experiment [1] was 5.01 µM; in experiment [3] it was 10 µM.
For the molecule `CSCC[C@H](NC(=O)[C@H](CCC(=O)O)NC(=O)CNC(=O)[C@H](C)NC(=O)[C@@H](NC(=O)CNC(=O)[C@H](CC(C)C)NC(=O)[C@@H]1CCCN1C(=O)[C@H](CC(=O)O)NC(=O)[C@H](CCCNC(=N)N)NC(=O)[C@H](Cc1ccc(O)cc1)NC(=O)[C@H](CC(C)C)NC(=O)[C@H](CO)NC(=O)[C@@H](NC(=O)CCC(=O)O)C(C)C)C(C)C)C(=O)NCC(=O)N[C@H](C(=O)N[C@@H](Cc1ccc(O)cc1)C(N)=O)C(C)C` [CP141075, Suc-Val-Ser-Leu-Tyr-Arg-Asp-Pro-Leu-Gly-Val-Ala-Gly-Glu-Met-Gly-Val-Tyr-NH2] (HELM PEPTIDE1{[O=C(O)CCC(=O)[*:2]].V.S.L.Y.R.D.P.L.G.V.A.G.E.M.G.V.Y.[am]}$$$$V2.0), the results for the 50% inhibitory concentration (IC50) in experiment [1] and in experiment [3] (setting [5]) were 10 µM and 50.1 µM, respectively.
On to `CSCC[C@H](NC(=O)CNC(=O)CNC(=O)[C@H](C)NC(=O)[C@@H](NC(=O)CNC(=O)[C@H](CC(C)C)NC(=O)[C@@H]1CCCN1C(=O)[C@H](CC(=O)O)NC(=O)[C@H](CCC(=O)O)NC(=O)[C@H](Cc1ccc(O)cc1)NC(=O)[C@H](CC(C)C)NC(=O)[C@H](CO)NC(=O)[C@@H](NC(=O)CCC(=O)O)C(C)C)C(C)C)C(=O)NCC(=O)N[C@H](C(=O)N[C@@H](Cc1ccc(O)cc1)C(N)=O)C(C)C` [CP141074, Suc-Val-Ser-Leu-Tyr-Glu-Asp-Pro-Leu-Gly-Val-Ala-Gly-Gly-Met-Gly-Val-Tyr-NH2], for which the IC50 in experiment [1] was 3.98 µM; in experiment [3] (setting [5]), 5.01 µM.
Turning to `CC[C@H](NC(=O)[C@@H](NC(=O)CNC(=O)[C@H](CCCc1ccccc1)NC(=O)[C@@H]1CCCN1C(=O)[C@H](CC(=O)O)NC(=O)[C@H](CCCNC(=N)N)NC(=O)[C@H](Cc1ccc(O)cc1)NC(=O)[C@H](CC(C)C)NC(=O)[C@H](CO)NC(=O)[C@@H](NC(=O)CCC(=O)O)C(C)C)C(C)C)C(=O)NCC(=O)N[C@@H](CCC(=O)O)C(=O)N[C@@H](CCSC)C(=O)NCC(=O)N[C@H](C(=O)N[C@@H](Cc1ccc(O)cc1)C(N)=O)C(C)C` [CP141090, Suc-Val-Ser-Leu-Tyr-Arg-Asp-Pro-Ph5-Gly-Val-Abu-Gly-Glu-Met-Gly-Val-Tyr-NH2] (HELM PEPTIDE1{[O=C(O)CCC(=O)[*:2]].V.S.L.Y.R.D.P.[O=C([C@H](CCCc1ccccc1)N[*:1])[*:2]].G.V.[Abu].G.E.M.G.V.Y.[am]}$$$$V2.0), the IC50 was 10 µM in experiment [1] and 15.8 µM in experiment [3].

The values above are taken from US20200048308A1, “INFLUENZA VIRUS NE[…]” (priority 2016, published 2020).
